Reference: article PMC4727767, “Synthesis and In Vitro Biological Evaluation of 1,3,4-Oxadiazol-2(3H)-one and Tetrahydropyridazine-3,6-dione Derivatives of Fatty Acids” (Scientia Pharmaceutica, 2015)

What was measured:
Type in all cases: cell-based
[1] = system: MDA-MB-231 (Breast) cell line; assay: MTT cytotoxicity assay, MDA-MB-231; details: Homo sapiens, growth inhibition by 50% after 48 hr treatment
Description: (§1) The newly synthesized compounds, 3a–d and 6a–c, combined the benefits of the aforementioned 1,3,4-oxadiazol-2(3H)-one and tetrahydropyridazine-3,6-dione moieties with their fatty acid substituent to give a new scaffold. To check the anticancer potency, the compounds 3a–d and 6a–c were screened in vitro for cytotoxicity against MDA-MB-231 (Breast), KCL-22 (Lymphoblastoid), and HeLa (cervical) cell lines, while PBMC (peripheral blood mononuclear cells) were used as a normal cell. Doxorubicin and 5-Fluorouracil were used as standard cytotoxic drugs. A period of 48 hours of drug exposure was chosen to test cytotoxicity. The MTT cell viability assay based on the conversion of the soluble yellowish MTT to the insoluble purple formazan crystal by active mitochondrial […] of living cells was used for the measurement of cell proliferation. The inhibitory concentration (IC50) of 3a–d and 6a–c compounds were screened against the MDA-MB-231, KCL-22, and HeLa cell lines as given in Table 1. The effect of standard drugs (Doxorubicin and 5-Fluorouracil) on the MDA-MB-231, KCL-22, and HeLa cell lines, and PBMC are represented in Fig. 4.
(§2) The MDA-MB-231, KCL-22, and HeLa cell lines were maintained in RPMI 1640 (Sigma Aldrich, USA) culture medium supplemented with 10% heat-inactivated fetal calf serum (Sigma Aldrich, USA), and antibiotic antimycotic solution (Sigma Aldrich, USA).
(§3) The cells were plated at a density of (5×10^4 / well) in 96-well plates and cultured for 24 hours at 37°C. The cytotoxicity of compounds was determined by the MTT assay which involves the percentage viability of a cell in response to variable doses of compounds. After incubation for 48 hours, cell proliferation was measured by adding 20 μL of MTT dye (5 mg/mL in phosphate-buffered saline) per well. The plates were incubated for 4 hours more at 37°C in a humidified chamber containing 5% CO2. Active mitochondrial dehydrogenases of living cells reduced the yellow tetrazolium salt (dye) to an insoluble purple formazan crystal. Formazan crystals formed due to the reduction of tetrazoline dye by viable cells in each well which were dissolved in 150 μL dimethyl sulfoxide, and absorbance was read at 570 nm using a plate reader (Bio-Rad). The percentage of inhibition of cell viability was determined with reference to the untreated control. To determine the IC50 value, a linear regression analysis method was used.

[2] = system: KCL-22 (Lymphoblastoid) cell line; assay: MTT cytotoxicity assay, KCL-22; details: Homo sapiens, growth inhibition by 50% after 48 hr treatment
Description: as §1, §2, §3

[3] = system: HeLa (cervical) cell line; assay: MTT cytotoxicity assay, HeLa; details: Homo sapiens, growth inhibition by 50% after 48 hr treatment
Description: as §1, §2, §3

[4] = system: PBMC (peripheral blood mononuclear cells); assay: MTT cytotoxicity assay, normal cells PBMC; details: 48 hr treatment
Description: as §1
Fresh blood ([…]) was provided by the Blood Bank JNMC AMU, Aligarh. After dilution with the same volume of PBS, the diluted blood sample was layered on the Ficoll-Histopaque (Sigma Aldrich, USA). The mixture was centrifuged at 400×g for 30 min at 20–22°C followed by separation of the lymphocyte layer. Then the lymphocyte layer was washed and pelleted down with three volumes of PBS twice and resuspended with RPMI-1640 media with antibiotic and antimycotic solution 10%, v/v fetal calf serum (FCS).
as §3

| Structure (SMILES) | IC50 [1] [µM] | IC50 [2] [µM] | IC50 [3] [µM] | IC50 [4] [µM] |
| --- | --- | --- | --- | --- |
| C=CCCCCCCCCc1n[nH]c(=O)o1 [3a, 5-(Dec-9-en-1-yl)-1,3,4-oxadiazol-2(3H)-one] | 12.3 ± 1.6 | 15.5 ± 1.8 | 17.1 ± 2.1 | 39.7 ± 1.4 |
| CCCCCCCC/C=C\CCCCCCCc1n[nH]c(=O)o1 [3b, 5-[(8Z)-Heptadec-8-en-1-yl]-1,3,4-oxadiazol-2(3H)-one] | 9.3 ± 1.3 | 13.6 ± 1.3 | 12.3 ± 2.4 | > 50 |
| CCCCCC[C@@H](O)C/C=C\CCCCCCCc1n[nH]c(=O)o1 [3c, 5-[(8Z,11R)-11-Hydroxyheptadec-8-en-1-yl]-1,3,4-oxadiazol-2(3H)-one] | 6.3 ± 1.1 | 8.3 ± 1.2 | 9.6 ± 1.2 | 46.3 ± 1.3 |
| CCCCCCCCCCCCCCCCCc1n[nH]c(=O)o1 [3d, 5-Heptadecyl-1,3,4-oxadiazol-2(3H)-one] | 15.4 ± 1.8 | 11.8 ± 1.6 | 26.2 ± 1.5 | 41.4 ± 1.4 |
| O=c1[nH]cc(F)c(=O)[nH]1 [5-Fluorouracil, reference compound] | 2.42 ± 0.09 | 2.52 ± 1 | 2.18 ± 0.8 | 11.1 ± 2.3 |
| C=CCCCCCCCCC(=O)N1NC(=O)CCC1=O [6a, 1-(Undec-10-enoyl)tetrahydropyridazine-3,6-dione] | 18.9 ± 2.2 | 16.4 ± 2.1 | 19.3 ± 1.4 | 44.8 ± 1.3 |
| CCCCCCCC/C=C\CCCCCCCC(=O)N1NC(=O)CCC1=O [6b, 1-[(9Z)-Octadec-9-enoyl]tetrahydropyridazine-3,6-dione] | 11.1 ± 1.8 | 8.1 ± 1.4 | 13.4 ± 2.4 | 43.2 ± 1.5 |
| CCCCCCCCCCCCCCCC(=O)N1NC(=O)CCC1=O [6c, 1-Hexadecanoyltetrahydropyridazine-3,6-dione] | 25.7 ± 1.4 | 17.6 ± 2.2 | 21.2 ± 1.6 | 43.6 ± 1.4 |
| COc1cccc2c1C(=O)c1c(O)c3c(c(O)c1C2=O)C[C@@](O)(C(=O)CO)C[C@@H]3O[C@H]1C[C@H](N)[C@H](O)[C@H](C)O1 [Doxorubicin, reference compound] | 1.6 ± 0.09 | 1.1 ± 0.08 | 1.9 ± 0.09 | 9.39 ± 1.9 |
